Reference: patent US9688710B2, “Inhibitors of sodium glucose cotransporter 1” (LEXICON PHARMACEUTICALS, INC., priority 2012, dated 2017)

What was measured:
[1] = target: Human sodium/glucose co-transporter type 1 (SGLT1) (Homo sapiens (Human), UniProt P13866); experiment: In vitro human SGLT1 inhibition assay (14C-AMG uptake); assay type: cell-based; settings: HEK293 cells expressing human HA-SGLT1, 14C-AMG uptake
Method in brief: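 HEK293 cells stably expressing human HA-tagged SGLT1 (30,000/well, overnight) were washed into Na+-containing uptake buffer (140 mM NaCl, HEPES/Tris, 1 mg/mL BSA, pH 7.3). Cells then received compound plus 100 nCi 14C-AMG for 1–2 h at 37 °C; after washing, AMG uptake was quantified by scintillation counting.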

[2] = target: Human sodium/glucose co-transporter type 2 (SGLT2) (Homo sapiens (Human), UniProt P31639); experiment: In vitro human SGLT2 inhibition assay (14C-AMG uptake); assay type: cell-based; settings: HEK293 cells expressing human HA-SGLT2, 14C-AMG uptake
Sequence of Human sodium/glucose co-transporter type 2 (SGLT2) (P31639 whole entry): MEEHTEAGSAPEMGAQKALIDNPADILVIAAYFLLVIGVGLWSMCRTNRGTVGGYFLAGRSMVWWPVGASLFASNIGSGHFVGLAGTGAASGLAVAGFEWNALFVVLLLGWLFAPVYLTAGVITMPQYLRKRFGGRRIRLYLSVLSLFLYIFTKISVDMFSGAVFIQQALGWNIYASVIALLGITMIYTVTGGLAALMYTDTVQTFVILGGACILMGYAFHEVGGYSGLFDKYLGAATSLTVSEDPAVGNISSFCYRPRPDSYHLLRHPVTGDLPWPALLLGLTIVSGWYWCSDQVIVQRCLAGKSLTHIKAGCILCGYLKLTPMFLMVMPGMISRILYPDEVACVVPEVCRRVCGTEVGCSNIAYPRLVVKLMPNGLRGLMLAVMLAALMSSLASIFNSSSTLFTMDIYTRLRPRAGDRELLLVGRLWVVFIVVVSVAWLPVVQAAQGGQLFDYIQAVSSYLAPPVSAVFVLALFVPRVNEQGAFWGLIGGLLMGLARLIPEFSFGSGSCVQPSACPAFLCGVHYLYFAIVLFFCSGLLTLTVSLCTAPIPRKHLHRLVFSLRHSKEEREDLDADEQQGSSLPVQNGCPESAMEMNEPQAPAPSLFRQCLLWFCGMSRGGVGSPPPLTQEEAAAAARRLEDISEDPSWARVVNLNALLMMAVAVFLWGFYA
Method in brief: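 HEK293 cells stably expressing HA-tagged human SGLT2, seeded overnight, washed into Na+-containing HEPES/Tris uptake buffer with 1 mg/mL BSA, pH 7.3. Compound added, then 14C-AMG (100 nCi); 1-2 h at 37 °C, 5% CO2. Washed cells counted by scintillation for 14C-AMG uptake.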

Sequence of Human sodium/glucose co-transporter type 1 (SGLT1) (P13866 whole entry): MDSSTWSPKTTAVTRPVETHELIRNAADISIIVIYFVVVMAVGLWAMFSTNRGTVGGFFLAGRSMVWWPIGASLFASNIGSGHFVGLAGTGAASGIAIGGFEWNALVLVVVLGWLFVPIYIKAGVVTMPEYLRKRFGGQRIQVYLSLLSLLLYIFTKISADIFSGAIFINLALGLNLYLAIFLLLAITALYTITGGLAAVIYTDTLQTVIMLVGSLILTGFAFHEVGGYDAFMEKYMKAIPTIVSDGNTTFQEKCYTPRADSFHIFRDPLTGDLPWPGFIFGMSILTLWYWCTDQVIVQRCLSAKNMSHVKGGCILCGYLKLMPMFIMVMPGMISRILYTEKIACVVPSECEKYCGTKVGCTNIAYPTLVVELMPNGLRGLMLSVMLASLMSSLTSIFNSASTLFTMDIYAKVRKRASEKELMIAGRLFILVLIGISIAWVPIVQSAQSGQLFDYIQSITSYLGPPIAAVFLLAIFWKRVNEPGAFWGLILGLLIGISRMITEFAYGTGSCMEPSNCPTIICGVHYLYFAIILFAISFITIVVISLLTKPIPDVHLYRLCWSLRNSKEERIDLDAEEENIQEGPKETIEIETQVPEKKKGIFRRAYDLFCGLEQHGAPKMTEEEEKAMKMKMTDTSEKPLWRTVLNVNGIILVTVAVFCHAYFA

SMILES | IC50 [1] | IC50 [2]
CS[C@H]1O[C@@H](c2ccc(C)c(Cc3ccc(CCCC(=O)NC(C)(C)C(=O)N(C)CCN(C)C)cc3)c2)[C@H](O)[C@@H](O)[C@@H]1O [N-(1-((2-(dimethylamino)ethyl)(methyl)amino)-2-methyl-1-oxopropan-2-yl)-4-(4-(2-methyl-5-((2S,3R,4R,5S,6R)-3,4,5-trihydroxy-6-(methylthio)tetrahydro-2H-pyran-2-yl)benzyl)phenyl)butanamide] | < 10 nM | < 10 nM
CS[C@H]1O[C@@H](c2ccc(C)c(Cc3ccc(OCCCC(=O)NC(C)(C)C(=O)NCCN(C)C)cc3)c2)[C@H](O)[C@@H](O)[C@@H]1O [N-(1-((2-(dimethylamino)ethyl)amino)-2-methyl-1-oxopropan-2-yl)-4-(4-(2-methyl-5-((2S,3R,4R,5S,6R)-3,4,5-trihydroxy-6-(methylthio)tetrahydro-2H-pyran-2-yl)benzyl)phenoxy)butanamide] | < 10 nM | < 10 nM
CS[C@H]1O[C@@H](c2ccc(C)c(Cc3ccc(CCCC(=O)NC(C)(C)C(=O)NCCN(C)C)cc3)c2)[C@H](O)[C@@H](O)[C@@H]1O [N-(1-((2-(dimethylamino)ethyl)amino)-2-methyl-1-oxopropan-2-yl)-4-(4-(2-methyl-5-((2S,3R,4R,5S,6R)-3,4,5-trihydroxy-6-(methylthio)tetrahydro-2H-pyran-2-yl)benzyl)phenyl)butanamide] | < 10 nM | < 10 nM
CS[C@H]1O[C@@H](c2ccc(Cl)c(Cc3ccc(OCCCC(=O)N(C)C(C)(C)C(N)=O)cc3)c2)[C@H](O)[C@@H](O)[C@@H]1O [N-(1-amino-2-methyl-1-oxopropan-2-yl)-4-(4-(2-chloro-5-((2S,3R,4R,5S,6R)-3,4,5-trihydroxy-6-(methylthio)tetrahydro-2H-pyran-2-yl)benzyl)phenoxy)-N-methylbutanamide] | < 10 nM | < 10 nM
CS[C@H]1O[C@@H](c2ccc(Cl)c(Cc3ccc(OCCCC(=O)NC(C)(C)C(N)=O)cc3)c2)[C@H](O)[C@@H](O)[C@@H]1O [N-(1-amino-2-methyl-1-oxopropan-2-yl)-4-(4-(2-chloro-5-((2S,3R,4R,5S,6R)-3,4,5-trihydroxy-6-(methylthio)tetrahydro-2H-pyran-2-yl)benzyl)phenoxy)butanamide] | < 10 nM | < 10 nM
CS[C@H]1O[C@@H](c2ccc(C)c(Cc3ccc(OCCCC(=O)NC(C)(C)C(N)=O)cc3)c2)[C@H](O)[C@@H](O)[C@@H]1O [N-(1-amino-2-methyl-1-oxopropan-2-yl)-4-(4-(2-methyl-5-((2S,3R,4R,5S,6R)-3,4,5-trihydroxy-6-(methylthio)tetrahydro-2H-pyran-2-yl)benzyl)phenoxy)butanamide] | < 10 nM | < 10 nM
CS[C@H]1O[C@@H](c2ccc(C)c(Cc3ccc(CCCC(=O)NC(C)(C)C(N)=O)cc3)c2)[C@H](O)[C@@H](O)[C@@H]1O [N-(1-amino-2-methyl-1-oxopropan-2-yl)-4-(4-(2-methyl-5-((2S,3R,4R,5S,6R)-3,4,5-trihydroxy-6-(methylthio)tetrahydro-2H-pyran-2-yl)benzyl)phenyl)butanamide] | < 10 nM | < 10 nM
CS[C@H]1O[C@@H](c2ccc(C)c(Cc3ccc(CCCCC(=O)NC(C)(C)C(N)=O)cc3)c2)[C@H](O)[C@@H](O)[C@@H]1O [N-(1-amino-2-methyl-1-oxopropan-2-yl)-5-(4-(2-methyl-5-((2S,3R,4R,5S,6R)-3,4,5-trihydroxy-6-(methylthio)tetrahydro-2H-pyran-2-yl)benzyl)phenyl)pentanamide] | < 10 nM | < 10 nM
CS[C@H]1O[C@@H](c2ccc(C)c(Cc3ccc(CCCCCC(=O)NC(C)(C)C(N)=O)cc3)c2)[C@H](O)[C@@H](O)[C@@H]1O [N-(1-amino-2-methyl-1-oxopropan-2-yl)-6-(4-(2-methyl-5-((2S,3R,4R,5S,6R)-3,4,5-trihydroxy-6-(methylthio)tetrahydro-2H-pyran-2-yl)benzyl)phenyl)hexanamide] | < 100 nM | < 10 nM
CS[C@H]1O[C@@H](c2ccc(C)c(Cc3ccc(CCCCCCC(=O)NC(C)(C)C(N)=O)cc3)c2)[C@H](O)[C@@H](O)[C@@H]1O [N-(1-amino-2-methyl-1-oxopropan-2-yl)-7-(4-(2-methyl-5-((2S,3R,4R,5S,6R)-3,4,5-trihydroxy-6-(methylthio)tetrahydro-2H-pyran-2-yl)benzyl)phenyl)heptanamide] | < 100 nM | < 10 nM

Further lines, results first:

IC50 [1] | IC50 [2] | SMILES
< 10 nM | < 10 nM | CS[C@H]1O[C@@H](c2ccc(C)c(Cc3ccc(OCCCC(=O)NC(C)(C)CO)cc3)c2)[C@H](O)[C@@H](O)[C@@H]1O [N-(1-hydroxy-2-methylpropan-2-yl)-4-(4-(2-methyl-5-((2S,3R,4R,5S,6R)-3,4,5-trihydroxy-6-(methylthio)tetrahydro-2H-pyran-2-yl)benzyl)phenoxy)butanamide]
< 10 nM | < 10 nM | CS[C@H]1O[C@@H](c2ccc(C)c(Cc3ccc(CCCC(=O)NC(C)(C)CO)cc3)c2)[C@H](O)[C@@H](O)[C@@H]1O [N-(1-hydroxy-2-methylpropan-2-yl)-4-(4-(2-methyl-5-((2S,3R,4R,5S,6R)-3,4,5-trihydroxy-6-(methylthio)tetrahydro-2H-pyran-2-yl)benzyl)phenyl)butanamide]
< 10 nM | < 10 nM | CS[C@H]1O[C@@H](c2ccc(C)c(Cc3ccc(CCCCC(=O)NC(C)(C)CO)cc3)c2)[C@H](O)[C@@H](O)[C@@H]1O [N-(1-hydroxy-2-methylpropan-2-yl)-5-(4-(2-methyl-5-((2S,3R,4R,5S,6R)-3,4,5-trihydroxy-6-(methylthio)tetrahydro-2H-pyran-2-yl)benzyl)phenyl)pentanamide]
< 100 nM | < 10 nM | CS[C@H]1O[C@@H](c2ccc(C)c(Cc3ccc(CCCCCCC(=O)NC(C)(C)CO)cc3)c2)[C@H](O)[C@@H](O)[C@@H]1O [N-(1-hydroxy-2-methylpropan-2-yl)-7-(4-(2-methyl-5-((2S,3R,4R,5S,6R)-3,4,5-trihydroxy-6-(methylthio)tetrahydro-2H-pyran-2-yl)benzyl)phenyl)heptanamide]
< 10 nM | < 10 nM | CS[C@H]1O[C@@H](c2ccc(C)c(Cc3ccc(OCCCC(=O)NCC(C)(C)C(=O)N4CCN(C)CC4)cc3)c2)[C@H](O)[C@@H](O)[C@@H]1O [N-(2,2-dimethyl-3-(4-methylpiperazin-1-yl)-3-oxopropyl)-4-(4-(2-methyl-5-((2S,3R,4R,5S,6R)-3,4,5-trihydroxy-6-(methylthio)tetrahydro-2H-pyran-2-yl)benzyl)phenoxy)butanamide]
< 10 nM | < 10 nM | CS[C@H]1O[C@@H](c2ccc(C)c(Cc3ccc(CCCC(=O)NCC(C)(C)C(=O)N4CCN(C)CC4)cc3)c2)[C@H](O)[C@@H](O)[C@@H]1O [N-(2,2-dimethyl-3-(4-methylpiperazin-1-yl)-3-oxopropyl)-4-(4-(2-methyl-5-((2S,3R,4R,5S,6R)-3,4,5-trihydroxy-6-(methylthio)tetrahydro-2H-pyran-2-yl)benzyl)phenyl)butanamide]
< 100 nM | < 10 nM | CS[C@H]1O[C@@H](c2ccc(C)c(Cc3ccc(CCCC(=O)NCC(C)(C)C(=O)NC4CCNCC4)cc3)c2)[C@H](O)[C@@H](O)[C@@H]1O [N-(2,2-dimethyl-3-oxo-3-(piperidin-4-ylamino)propyl)-4-(4-(2-methyl-5-((2S,3R,4R,5S,6R)-3,4,5-trihydroxy-6-(methylthio)tetrahydro-2H-pyran-2-yl)benzyl)phenyl)butanamide]
< 10 nM | < 10 nM | CS[C@H]1O[C@@H](c2ccc(Cl)c(Cc3ccc(OCCNC(=O)C(C)(C)CO)cc3)c2)[C@H](O)[C@@H](O)[C@@H]1O [N-(2-(4-(2-chloro-5-((2S,3R,4R,5S,6R)-3,4,5-trihydroxy-6-(methylthio)tetrahydro-2H-pyran-2-yl)benzyl)phenoxy)ethyl)-3-hydroxy-2,2-dimethylpropanamide]
< 10 nM | < 10 nM | CS[C@H]1O[C@@H](c2ccc(Cl)c(Cc3ccc(OCCNC(=O)N4CCN(C)CC4)cc3)c2)[C@H](O)[C@@H](O)[C@@H]1O [N-(2-(4-(2-chloro-5-((2S,3R,4R,5S,6R)-3,4,5-trihydroxy-6-(methylthio)tetrahydro-2H-pyran-2-yl)benzyl)phenoxy)ethyl)-4-methylpiperazine-1-carboxamide]
< 10 nM | < 10 nM | CCC(=O)NCCOc1ccc(Cc2cc([C@@H]3O[C@H](SC)[C@@H](O)[C@H](O)[C@H]3O)ccc2Cl)cc1 [N-(2-(4-(2-chloro-5-((2S,3R,4R,5S,6R)-3,4,5-trihydroxy-6-(methylthio)tetrahydro-2H-pyran-2-yl)benzyl)phenoxy)ethyl)propionamide]
< 10 nM | < 10 nM | CS[C@H]1O[C@@H](c2ccc(C)c(Cc3ccc(CCCC(=O)NCC(C)(C)N)cc3)c2)[C@H](O)[C@@H](O)[C@@H]1O [N-(2-amino-2-methylpropyl)-4-(4-(2-methyl-5-((2S,3R,4R,5S,6R)-3,4,5-trihydroxy-6-(methylthio)tetrahydro-2H-pyran-2-yl)benzyl)phenyl)butanamide]
